Earlier results as cited in patent publication US9901523B2, “Oral care products comprising zinc oxide and trimethylglycine” (Colgate-Palmolive Company, priority 2012, dated 2018).

Details: water at 30° C.

Compound: [O]=[Zn] [Zinc oxide]
- solubility of zinc oxide: about 0.16 mg per 100 ml of water
